From ChEMBL document CHEMBL5346945, “Discovery and Optimization of the First ATP Competitive Type-III c-MET Inhibitor” (J Med Chem, 2023)

How the values were obtained:
[1] = Metabolic stability in Han Wistar rat hepatocytes assessed as intrinsic clearance measured per million cells at 1 uM measured at 0.5 to 2 hrs by LC-MS/MS analysis; format: ADME, cell-based, Hepatocyte; conditions: time 0.5-2 hrs, read-out: CLH
[2] = molecular target: T1, Hepatocyte growth factor receptor (Homo sapiens, UniProt P08581); assay: Binding affinity to wild type c-MET (unknown origin) assessed as dissociation constant measured for 120 sec by SPR analysis
T1 sequence (P08581 whole entry): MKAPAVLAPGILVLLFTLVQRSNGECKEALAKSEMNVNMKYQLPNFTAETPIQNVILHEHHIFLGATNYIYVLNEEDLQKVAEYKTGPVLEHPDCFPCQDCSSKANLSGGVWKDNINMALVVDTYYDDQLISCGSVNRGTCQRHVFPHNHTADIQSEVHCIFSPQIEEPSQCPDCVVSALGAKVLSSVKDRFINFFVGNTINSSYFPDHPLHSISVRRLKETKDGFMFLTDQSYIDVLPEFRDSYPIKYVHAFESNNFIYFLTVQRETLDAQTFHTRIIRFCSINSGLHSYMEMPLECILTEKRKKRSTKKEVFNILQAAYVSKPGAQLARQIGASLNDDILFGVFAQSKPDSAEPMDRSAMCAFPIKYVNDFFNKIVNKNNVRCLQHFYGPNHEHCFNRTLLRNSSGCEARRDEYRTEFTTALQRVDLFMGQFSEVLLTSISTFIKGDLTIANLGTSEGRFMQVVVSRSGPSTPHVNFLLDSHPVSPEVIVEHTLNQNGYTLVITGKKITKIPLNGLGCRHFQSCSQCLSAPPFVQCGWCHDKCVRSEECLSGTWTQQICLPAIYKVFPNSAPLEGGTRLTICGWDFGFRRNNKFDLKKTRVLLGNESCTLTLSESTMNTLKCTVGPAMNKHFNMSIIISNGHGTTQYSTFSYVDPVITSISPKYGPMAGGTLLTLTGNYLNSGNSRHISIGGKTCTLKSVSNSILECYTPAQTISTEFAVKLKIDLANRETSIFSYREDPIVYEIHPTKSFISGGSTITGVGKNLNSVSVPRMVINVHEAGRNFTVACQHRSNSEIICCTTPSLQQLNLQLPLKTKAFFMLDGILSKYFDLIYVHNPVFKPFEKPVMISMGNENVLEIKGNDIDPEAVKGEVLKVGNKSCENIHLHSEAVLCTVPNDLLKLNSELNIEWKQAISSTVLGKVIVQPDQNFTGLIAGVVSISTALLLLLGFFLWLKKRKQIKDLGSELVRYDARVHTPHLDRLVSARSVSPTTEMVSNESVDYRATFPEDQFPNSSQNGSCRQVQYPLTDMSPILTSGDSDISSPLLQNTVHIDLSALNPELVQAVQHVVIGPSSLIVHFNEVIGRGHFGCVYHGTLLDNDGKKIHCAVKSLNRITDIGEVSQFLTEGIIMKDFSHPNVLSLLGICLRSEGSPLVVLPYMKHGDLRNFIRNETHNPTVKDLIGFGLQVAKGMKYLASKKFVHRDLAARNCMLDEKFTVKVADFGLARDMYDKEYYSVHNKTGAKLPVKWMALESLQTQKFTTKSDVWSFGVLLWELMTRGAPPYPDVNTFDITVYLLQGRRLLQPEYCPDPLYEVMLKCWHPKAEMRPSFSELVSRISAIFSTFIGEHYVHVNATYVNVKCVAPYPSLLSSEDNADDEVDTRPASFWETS

[3] = Lipophilicity, logD of compound in octanol and water at pH 7.4 measured by shake-flask method; format: physicochemical
[4] = Metabolic stability in human liver microsomes assessed as intrinsic clearance at 1 uM preincubated with NADPH for 8 mins followed by compound addition measured at 0.5 to 30 mins by LC-MS/MS analysis; format: ADME, Microsome; conditions: time 0.5-30 min, read-out: CLH
[5] = molecular target: T1, Hepatocyte growth factor receptor; assay: Inhibition of wild type c-MET (unknown origin) using ATP and poly(L-glutamic acid-L-tyrosine) as substrate incubated for 60 mins measured by ADP-Glo kinase assay
[6] = Permeability across basolateral to apical side in MDCK cells at 10 uM by LC-MS/MS analysis; format: ADME, cell-based, Canis lupus familiaris; conditions: dog, read-out: permeability
[7] = Metabolic stability in human hepatocytes assessed as intrinsic clearance measured per million cells at 1 uM measured at 0.5 to 2 hrs by LC-MS/MS analysis; format: ADME, cell-based, Hepatocyte; conditions: time 0.5-2 hrs, read-out: CLH
[8] = Oral bioavailability in Han Wistar rat plasma at 1 mg/kg, measured for 1 to 24 hrs by LC-MS/MS analysis; format: ADME, organism-based; conditions: in vivo, time 1-24 hrs
[9] = Volume of distribution at steady state in Han Wistar rat plasma at 1 mg/kg, po or 0.5 mg/kg, iv measured for 1 to 24 hrs by LC-MS/MS analysis; format: ADME, organism-based; conditions: in vivo, time 1-24 hrs
[10] = Ratio of drug concentration in brain to plasma of Han Wistar rat plasma at 2 micromol/kg per hour measured after 4 hrs by LC-MS/MS analysis; format: ADME; conditions: dose 2 µmol/kg
[11] = molecular target: T1, Hepatocyte growth factor receptor; assay: Inhibition of wild type c-MET in human NCI-H1993 cells incubated for 4 hrs measured by HTRF assay; format: cell-based
[12] = molecular target: Tyrosine-protein kinase receptor UFO (Homo sapiens) (UniProt P30530); conditions: dose 100.0 nM
Tyrosine-protein kinase receptor UFO (Homo sapiens), sequence (P30530 whole entry): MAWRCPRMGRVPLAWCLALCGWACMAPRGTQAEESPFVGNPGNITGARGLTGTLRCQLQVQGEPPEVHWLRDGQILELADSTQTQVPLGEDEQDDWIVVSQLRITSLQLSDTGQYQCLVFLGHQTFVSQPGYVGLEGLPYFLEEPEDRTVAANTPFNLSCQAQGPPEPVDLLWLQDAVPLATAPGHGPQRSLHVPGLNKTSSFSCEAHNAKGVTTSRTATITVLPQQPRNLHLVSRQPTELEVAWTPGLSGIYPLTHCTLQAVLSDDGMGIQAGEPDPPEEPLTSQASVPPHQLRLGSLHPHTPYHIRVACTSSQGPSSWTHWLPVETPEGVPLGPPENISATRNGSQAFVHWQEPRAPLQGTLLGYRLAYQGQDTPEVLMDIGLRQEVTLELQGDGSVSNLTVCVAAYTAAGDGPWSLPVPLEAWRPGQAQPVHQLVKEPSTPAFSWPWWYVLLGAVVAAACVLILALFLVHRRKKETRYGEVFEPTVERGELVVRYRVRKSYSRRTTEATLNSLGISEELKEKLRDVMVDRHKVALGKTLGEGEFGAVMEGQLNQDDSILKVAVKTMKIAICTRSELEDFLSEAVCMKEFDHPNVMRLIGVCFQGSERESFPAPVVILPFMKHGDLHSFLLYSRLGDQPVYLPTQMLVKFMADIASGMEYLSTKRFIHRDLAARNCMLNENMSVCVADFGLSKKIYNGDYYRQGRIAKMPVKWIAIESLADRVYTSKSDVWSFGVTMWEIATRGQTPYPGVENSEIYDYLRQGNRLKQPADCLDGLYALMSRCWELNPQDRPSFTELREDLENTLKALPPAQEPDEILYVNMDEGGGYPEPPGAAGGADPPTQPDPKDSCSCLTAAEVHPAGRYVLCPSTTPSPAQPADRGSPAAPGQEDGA
Description: Inhibition of AXL (unknown origin) at 100 nM relative to control

[13] = molecular target: T1, Hepatocyte growth factor receptor; conditions: dose 100.0 nM
Description: Inhibition of c-MET (unknown origin) at 100 nM relative to control

[14] = molecular target: T2, Tyrosine-protein kinase Mer (Homo sapiens) (UniProt Q12866); conditions: dose 100.0 nM
T2 sequence (whole entry): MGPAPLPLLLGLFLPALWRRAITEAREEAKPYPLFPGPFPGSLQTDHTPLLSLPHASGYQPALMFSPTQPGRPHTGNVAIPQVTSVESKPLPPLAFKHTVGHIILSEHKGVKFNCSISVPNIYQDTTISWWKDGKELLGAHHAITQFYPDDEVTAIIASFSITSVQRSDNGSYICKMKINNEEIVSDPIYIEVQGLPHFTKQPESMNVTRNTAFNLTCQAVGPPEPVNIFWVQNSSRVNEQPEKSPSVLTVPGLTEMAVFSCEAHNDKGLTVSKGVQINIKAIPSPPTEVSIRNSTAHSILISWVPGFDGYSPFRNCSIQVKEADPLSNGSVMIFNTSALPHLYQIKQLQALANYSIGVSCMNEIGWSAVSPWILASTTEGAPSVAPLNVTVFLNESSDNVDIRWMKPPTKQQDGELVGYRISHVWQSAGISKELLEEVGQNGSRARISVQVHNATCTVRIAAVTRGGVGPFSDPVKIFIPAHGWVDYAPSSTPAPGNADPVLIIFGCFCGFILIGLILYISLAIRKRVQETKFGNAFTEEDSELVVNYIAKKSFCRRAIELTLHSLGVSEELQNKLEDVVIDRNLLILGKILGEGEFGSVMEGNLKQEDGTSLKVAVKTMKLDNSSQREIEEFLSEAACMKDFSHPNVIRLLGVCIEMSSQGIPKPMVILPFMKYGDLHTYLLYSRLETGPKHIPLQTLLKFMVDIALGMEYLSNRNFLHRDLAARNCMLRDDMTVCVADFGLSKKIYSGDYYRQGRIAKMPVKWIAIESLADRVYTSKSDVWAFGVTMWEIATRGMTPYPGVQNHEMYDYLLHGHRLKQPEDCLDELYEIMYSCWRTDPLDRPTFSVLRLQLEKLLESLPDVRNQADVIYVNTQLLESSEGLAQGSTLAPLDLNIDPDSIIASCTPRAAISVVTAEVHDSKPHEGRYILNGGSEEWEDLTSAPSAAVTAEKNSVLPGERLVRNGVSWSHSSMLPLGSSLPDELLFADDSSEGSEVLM
Description: Inhibition of MERTK (unknown origin) at 100 nM relative to control

[15] = molecular target: Macrophage-stimulating protein receptor (Homo sapiens) (UniProt Q04912); conditions: dose 100.0 nM
Macrophage-stimulating protein receptor (Homo sapiens), sequence (Q04912 25-304 limits assumed): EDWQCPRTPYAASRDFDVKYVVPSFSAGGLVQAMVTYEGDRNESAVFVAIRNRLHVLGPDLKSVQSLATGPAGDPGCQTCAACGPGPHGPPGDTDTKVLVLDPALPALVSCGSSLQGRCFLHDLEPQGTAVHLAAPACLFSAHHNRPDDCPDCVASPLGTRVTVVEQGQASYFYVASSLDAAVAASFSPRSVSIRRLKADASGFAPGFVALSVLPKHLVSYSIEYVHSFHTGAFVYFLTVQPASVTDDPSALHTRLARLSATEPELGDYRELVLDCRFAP
Macrophage-stimulating protein receptor (Homo sapiens), sequence (Q04912 310-1400 limits assumed): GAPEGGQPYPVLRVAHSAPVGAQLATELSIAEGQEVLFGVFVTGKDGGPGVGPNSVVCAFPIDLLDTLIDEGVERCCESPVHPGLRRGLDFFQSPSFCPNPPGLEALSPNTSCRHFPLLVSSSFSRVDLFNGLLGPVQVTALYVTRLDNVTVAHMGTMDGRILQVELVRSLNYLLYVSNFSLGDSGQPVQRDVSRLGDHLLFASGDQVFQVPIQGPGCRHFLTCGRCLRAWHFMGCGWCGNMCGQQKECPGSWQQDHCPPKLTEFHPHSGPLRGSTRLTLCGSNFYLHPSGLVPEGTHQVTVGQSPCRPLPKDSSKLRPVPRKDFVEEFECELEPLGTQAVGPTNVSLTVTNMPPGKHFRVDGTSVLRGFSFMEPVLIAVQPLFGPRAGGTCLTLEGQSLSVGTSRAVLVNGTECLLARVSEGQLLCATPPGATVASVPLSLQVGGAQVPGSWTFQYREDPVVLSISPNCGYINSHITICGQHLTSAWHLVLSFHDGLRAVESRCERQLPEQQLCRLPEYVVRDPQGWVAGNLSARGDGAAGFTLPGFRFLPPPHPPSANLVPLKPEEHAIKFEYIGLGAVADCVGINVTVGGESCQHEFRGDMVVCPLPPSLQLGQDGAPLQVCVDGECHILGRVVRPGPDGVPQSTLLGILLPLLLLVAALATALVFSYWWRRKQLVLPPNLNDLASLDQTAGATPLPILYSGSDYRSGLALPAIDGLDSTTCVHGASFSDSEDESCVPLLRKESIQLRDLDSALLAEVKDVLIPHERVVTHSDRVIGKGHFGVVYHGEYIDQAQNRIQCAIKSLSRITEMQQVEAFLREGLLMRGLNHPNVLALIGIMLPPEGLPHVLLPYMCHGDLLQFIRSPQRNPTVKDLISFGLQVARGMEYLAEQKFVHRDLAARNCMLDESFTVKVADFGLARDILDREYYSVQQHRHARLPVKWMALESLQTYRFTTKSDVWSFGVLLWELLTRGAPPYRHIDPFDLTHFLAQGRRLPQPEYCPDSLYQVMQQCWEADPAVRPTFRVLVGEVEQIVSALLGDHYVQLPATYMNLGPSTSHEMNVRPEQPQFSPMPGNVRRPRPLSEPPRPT
Description: Inhibition of MST1R (unknown origin) at 100 nM relative to control

| Compound | hepatocyte CLint at 1 µM [1] [µL/min/1e6 cells] | Kd [2] [µM] | logD [3] | microsomal CLint at 1 µM [4] [µL/min/mg] | IC50 [5] [µM] | also measured |
| --- | --- | --- | --- | --- | --- | --- |
| Cc1n[nH]c2c(-c3cn(C(C)c4ccccc4)c(=O)[nH]c3=O)cccc12 (stereo unspecified) | 37 | 0.18 | 2.7 | 17.8 | 0.43 | – |
| CC(c1ccccc1)n1cc(-c2ccccc2)c(=O)[nH]c1=O (stereo unspecified) | 185 | 3.9 | 2.7 | 50.1 | – | – |
| C#Cc1n[nH]c2c(-c3cn(C(C)c4ccccn4)c(=O)[nH]c3=O)cc(F)cc12 (stereo unspecified) | – | – | 2.5 | – | 0.055 | Papp B→A at 10 µM [6]: 37.9 ×10⁻⁶ cm/s; hepatocyte CLint at 1 µM [7]: 1.29 µL/min/1e6 cells; F [8]: 91%; Vdss [9]: 1.6 L/kg; K(p,uu,brain) [10]: 0.022 |
| CC(c1ccccc1)n1cc(-c2cc(F)cc3cn[nH]c23)c(=O)[nH]c1=O (stereo unspecified) | 14 | 0.12 | 2.5 | 4.04 | 0.4 | – |
| CC(c1ccccc1Cl)n1cc(-c2cc(F)cc(F)c2)c(=O)[nH]c1=O (stereo unspecified) | 227 | 36 | 3.6 | 38.3 | – | – |
| CC(c1ccc(F)cc1)n1cc(-c2cc(F)cc3cn[nH]c23)c(=O)[nH]c1=O (stereo unspecified) | 11.9 | – | 2.7 | 5.61 | 0.53 | – |
| O=c1[nH]c(=O)n(Cc2ccccc2)cc1-c1cc(F)cc(F)c1 | 76.7 | > 100 | 3 | 20.6 | – | – |
| C#Cc1n[nH]c2c(-c3cn(C(C)c4ccccc4)c(=O)[nH]c3=O)cccc12 (stereo unspecified) | 9.1 | – | 3.2 | 12.8 | 0.04 | – |
| CC(c1ccccc1)n1cc(-c2cccc3cn[nH]c23)c(=O)[nH]c1=O (stereo unspecified) | 46.1 | 0.24 | 2.4 | 6.13 | 1.3 | – |
| C[C@@H](c1ccc(F)cc1)n1cc(-c2cc(F)cc3c(C#N)n[nH]c23)c(=O)[nH]c1=O | – | – | 3.3 | – | 0.075 | Papp B→A at 10 µM [6]: 25.6 ×10⁻⁶ cm/s; hepatocyte CLint at 1 µM [7]: 2.48 µL/min/1e6 cells; F [8]: 96%; Vdss [9]: 1.5 L/kg; K(p,uu,brain) [10]: 0.014 |
| CC(c1ccccc1)n1cc(-c2cccc3c(F)n[nH]c23)c(=O)[nH]c1=O (stereo unspecified) | 49.4 | 0.24 | 3 | 32.4 | 0.81 | – |
| C[C@@H](c1ccccc1)n1cc(-c2cc(F)cc(F)c2)c(=O)[nH]c1=O | 133 | 0.92 | 3.1 | 7.68 | – | – |
| CC(c1ccccc1)n1cc(-c2ncccn2)c(=O)[nH]c1=O (stereo unspecified) | 4.67 | 2.7 | 0.85 | < 3 | – | – |
| CC(c1cccc(-c2cc[nH]n2)c1)n1cc(-c2cc(F)cc(F)c2)c(=O)[nH]c1=O (stereo unspecified) | 24.7 | 2.6 | 3.5 | 5.04 | – | – |
| C[C@@H](c1ccc(F)cc1)n1cc(-c2cc(F)cc3cn[nH]c23)c(=O)[nH]c1=O | – | – | 2.8 | – | 0.15 | Papp B→A at 10 µM [6]: 22.4 ×10⁻⁶ cm/s; hepatocyte CLint at 1 µM [7]: 1.81 µL/min/1e6 cells; F [8]: 57%; Vdss [9]: 4.3 L/kg; K(p,uu,brain) [10]: 0.11 |
| CC(c1ccccc1)n1cc(-c2ccccn2)c(=O)[nH]c1=O (stereo unspecified) | 300 | 4.5 | 2.2 | 12.6 | – | – |
| CC(c1cccc(-c2c[nH]cn2)c1)n1cc(-c2cccc3cn[nH]c23)c(=O)[nH]c1=O (stereo unspecified) | 5.84 | 0.46 | 2.3 | 8.92 | – | – |
| CC(c1ccccn1)n1cc(-c2cc(F)cc3c(C#N)n[nH]c23)c(=O)[nH]c1=O (stereo unspecified) | 3.08 | – | 2.1 | < 3 | 1.2 | EC50 [11]: > 29.8 µM |
| CC(c1cccc(-c2cn[nH]c2)c1)n1cc(-c2cc(F)cc(F)c2)c(=O)[nH]c1=O (stereo unspecified) | 22.3 | 0.8 | 3.4 | < 3 | – | – |
| CC(c1ccccc1)n1cc(-c2ccc3[nH]ccc3c2)c(=O)[nH]c1=O (stereo unspecified) | 217 | 0.52 | 2.9 | 25.4 | – | – |
| CC(c1ccccc1)n1cc(-c2cccc3c(C#N)n[nH]c23)c(=O)[nH]c1=O (stereo unspecified) | 41.4 | 0.2 | 2.9 | 32.7 | 0.5 | – |
| CC(c1ccc(F)cc1)n1cc(-c2cc(F)cc3c(C#N)n[nH]c23)c(=O)[nH]c1=O (stereo unspecified) | 4.4 | – | 3.2 | < 3 | 0.31 | EC50 [11]: 18.7 µM |
| CC(c1cccc(Cl)c1)n1cc(-c2cc(F)cc(F)c2)c(=O)[nH]c1=O (stereo unspecified) | 177 | 1 | 3.8 | 27.4 | – | – |
| CC(c1cccc(-c2c[nH]cn2)c1)n1cc(-c2cc(F)cc(F)c2)c(=O)[nH]c1=O (stereo unspecified) | 6.03 | 0.52 | 3.2 | 16.2 | – | – |
| CC(c1ccc(F)cc1)n1cc(-c2cc(F)cc(F)c2)c(=O)[nH]c1=O (stereo unspecified) | 26.8 | 1.2 | – | 17.4 | – | – |
| CC(c1ccccc1)n1cc(-c2cc(F)cc3c(C#N)n[nH]c23)c(=O)[nH]c1=O (stereo unspecified) | 51.4 | 0.087 | 3.1 | 11.4 | 0.13 | – |
| C#Cc1n[nH]c2c(-c3cn([C@@H](C)c4ccccc4)c(=O)[nH]c3=O)cc(F)cc12 | 15 | – | 3.4 | < 3 | 0.013 | EC50 [11]: 1.17 µM; inhibition [12]: < 50%; inhibition [13]: 80%; inhibition [14]: 80%; inhibition [15]: < 50% |
| CC(c1ccccc1)n1cc(-c2c(F)ccc3cn[nH]c23)c(=O)[nH]c1=O (stereo unspecified) | 28.3 | 0.44 | 2.5 | 7.35 | 2.2 | – |
| CC(c1ccccc1)n1cc(-c2cc(F)cc(F)c2)c(=O)[nH]c1=O (stereo unspecified) | 123 | 2.5 | 3.2 | 17.8 | – | – |
| C#Cc1n[nH]c2c(-c3cn(C(C)c4ccccc4)c(=O)[nH]c3=O)cc(F)cc12 (stereo unspecified) | – | – | 3.3 | – | 0.031 | EC50 [11]: 1.95 µM; Papp B→A at 10 µM [6]: 14.2 ×10⁻⁶ cm/s; hepatocyte CLint at 1 µM [7]: 4.27 µL/min/1e6 cells; F [8]: 100%; Vdss [9]: 4.6 L/kg; K(p,uu,brain) [10]: 0.1 |
